Data on 93 molecules can be found in ChEMBL document CHEMBL5604062, “ASAP - ZIKV NS2B-NS3 protease fluorescence dose response” (2024).

Usually IC50 stands for the concentration that gives 50% inhibition. A high value points to weaker potency.

Molecules are shown by their SMILES.

The target in this test is Nonstructural protein 3 (Zika virus, UniProt A0A024AXB9). Kind of test: Functional biochemical assay to identify treatments for viral infectious disease that targets Zika NS2B-NS3 protease. Utilizing a direct enzyme activity measurement method, reading the fluorescence intensity is used to characterize the relative potency of inhibitors as IC50. Also on record: species or system PRVABC59.
Nonstructural protein 3, sequence (A0A024AXB9 whole entry): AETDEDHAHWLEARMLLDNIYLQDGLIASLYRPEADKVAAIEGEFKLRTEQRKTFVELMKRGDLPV
In the case of `CC(C)c1noc2nc(C3CC3)cc(C(=O)Nc3cccc(CN)c3)c12`, the IC50 is greater than 99.5 µM.
Next, `NCc1ccc(NS(=O)(=O)c2ccc(Oc3ccccc3Cl)cc2)cc1`: greater than 99.5 µM.
The same measure for `CC(C)c1ncc(OC2CCC2)c(C(=O)Nc2cccc(CN)c2)n1`: greater than 99.5 µM; for `COc1ccc(F)cc1-c1ccc(S(=O)(=O)Nc2ccc(Cl)cc2C(N)=O)cc1`: 73.2 µM.
Regarding `Cc1c(CN)cccc1NS(=O)(=O)c1ccc(Oc2ccccc2Cl)cc1`, the half-maximal inhibitory concentration (IC50) is greater than 99.5 µM.
Next, `N[C@H]1CCc2ncc(NS(=O)(=O)c3ccc(Oc4ccccc4Cl)cc3)cc2C1`: greater than 99.5 µM; `O=C(Nc1cc(Cl)cc(C(=O)Nc2cccc([C@H]3CCCCN3)c2)c1)OCc1ccccc1`: 57.8 µM; `CCc1c(C(=O)Nc2cccc(CN)c2)c2cc(Cl)ccc2n1C`: greater than 99.5 µM.
The same measure for `Cc1cc(=O)c(C(=O)Nc2cccc(CN)c2)nn1-c1ccccc1C(F)(F)F`: greater than 99.5 µM; for `C[C@H]1CCN1C(=O)Cn1ccnc(N2CC[C@H](CO)C2)c1=O`: greater than 99.5 µM.
`COc1cn(-c2cccc(C(F)(F)F)c2)nc1C(=O)Nc1cccc(CN)c1`: the concentration for half-maximal inhibition (IC50) is greater than 99.5 µM.
Next, `NCc1ccncc1NS(=O)(=O)c1ccc(Oc2ccccc2Cl)cc1`: 94.2 µM.
The same measure for `NCc1cccc(NC(=O)c2cc(Cl)ccc2Oc2cccc(Cl)c2)c1`: 61.7 µM.
Next, `NCc1cccc(NC(=O)c2cc(C3CCCCC3)nc3ccc(F)cc23)c1`: greater than 99.5 µM.
Turning to `NCc1cccc(NC(=O)c2cccc(Oc3ccc(Cl)c(Cl)c3)n2)c1`, inhibition was half-maximal at 39.4 µM (IC50).
In turn, `Cc1cc(C(=O)Nc2cccc(CN)c2)n2nc(C(F)(F)F)cc2n1` showed a half-maximal inhibitory concentration (IC50) greater than 99.5 µM.
Next, `NCc1cccc(NC(=O)c2cc(C3CC3)nc3c(Cl)cnn23)c1`: greater than 99.5 µM; `O=C(Cn1ccnc(N2CC[C@H](CO)C2)c1=O)N[C@H]1CCOC1`: greater than 99.5 µM; `CCCOc1ccc2[nH]cc(CN3CCC(c4cscn4)CC3)c2c1`: greater than 99.5 µM.
The same measure for `NCc1cccc(NC(=O)c2cccn3cc(CN4CCCC4)nc23)c1`: 16.4 µM; for `CC(C)Oc1cc(CN)ccc1NS(=O)(=O)c1ccc(Oc2ccccc2Cl)cc1`: 64.4 µM.
The same measure for `NCc1cccc(NC(=O)Cc2cccc(Oc3ccncc3Br)c2)c1`: greater than 99.5 µM; for `O=C(Nc1cc(Cl)cc(C(=O)Nc2ccnc(OC3CNC3)c2)c1)OCc1ccccc1`: 66.1 µM.
Take `NCc1cccc(NC(=O)c2cc(CO)cc(NC(=O)OCc3ccccc3)c2)c1`: the IC50 is greater than 99.5 µM.
Next, `NCc1cccc(/C=C/c2cc(Cl)cc(NC(=O)OCc3ccccc3)c2)c1`: 22.3 µM; `CN1CCC[C@H]1COc1ccc([C@@H](NC(=O)OCc2ccccc2)C(=O)Nc2cccc(CN)c2)cc1`: greater than 99.5 µM; `NCc1cccc(NC(=O)c2cccc3c2O[C@H](c2ccccc2)C(=O)N3)c1`: 56.4 µM.
Next, `NCc1cccc(NC(=O)c2cc(C(F)(F)F)ccc2SC2CCCC2)c1`: 84.3 µM; `NCc1cccc(NC(=O)[C@H]2CCc3nnc(-c4ccc(F)cc4)n3C2)c1`: greater than 99.5 µM.
The same measure for `Cc1ccc(NS(=O)(=O)c2ccc(Oc3ccccc3Cl)cc2)cc1CN`: greater than 99.5 µM; for `CCOc1cccc(-c2ccc(S(=O)(=O)Nc3cc4c(cc3C(=O)O)CCC4)cc2)c1`: 14.2 µM.
On to `Cc1ccc(Sc2ncccc2C(=O)Nc2cccc(CN)c2)cc1C`, for which the IC50 was greater than 99.5 µM.
The same measure for `NCc1cccc(NC(=O)[C@@H](NC(=O)OCc2ccccc2)c2ccc(OCc3nc4c(s3)COCC4)cc2)c1`: 65.1 µM.
The same measure for `COCCN(C)C(=O)Cn1ccnc(N2CC[C@@H](CO)C2)c1=O`: greater than 99.5 µM; for `NCc1ccc(F)c(NC(=O)c2cc(Cl)cc(NC(=O)OCc3ccccc3)c2)c1`: 4.35 µM.
On to `NCc1cccc(NC(=O)[C@H](NC(=O)OCc2ccccc2)C2CCN(C(=O)Cn3ccnc3)CC2)c1`, for which the IC50 was greater than 99.5 µM.
Molecule `CC(C)c1nn(-c2ccccc2)cc1C(=O)Nc1cccc(CN)c1` gave a concentration for half-maximal inhibition (IC50) greater than 99.5 µM.
The same measure for `NC(=O)c1cc(Cl)ccc1NS(=O)(=O)c1ccc(-c2ccc(F)cc2)cc1`: 65.6 µM.
The same measure for `NCc1cccc(NC(=O)c2cc(C3CC3)n3nccc3n2)c1`: greater than 99.5 µM.
The same measure for `CC[C@H](CO)NC(=O)Cn1ccnc(N2CC[C@H](CO)C2)c1=O`: greater than 99.5 µM; for `CC[C@H](C(=O)Nc1cccc(CN)c1)n1cc(Br)c(C(F)(F)F)n1`: greater than 99.5 µM.
Consider `CC(C)(C)OC(=O)NCc1cc(Cl)cc(C(=O)O)c1`, for which the IC50 is greater than 99.5 µM.
`O=C1Nc2ccccc2[C@H]1N1CCC(c2nc3ccccc3s2)CC1` registered an IC50 greater than 99.5 µM.
Next, `CCc1onc(-c2ccc(Br)cc2)c1C(=O)Nc1cccc(CN)c1`: greater than 99.5 µM; `O=C(Nc1cc(Cl)cc(C(=O)NCC[C@H]2COCCN2)c1)OCc1ccccc1`: greater than 99.5 µM.
Next, `CC(C)(C)Cn1c(=O)[nH]c2cccc(C(=O)Nc3cccc(CN)c3)c21`: 37.2 µM; `CC(C)(C)NS(=O)(=O)c1cccc(C(=O)Nc2cccc(CN)c2)c1`: greater than 99.5 µM; `O=C(Nc1cc(Cl)cc(C(=O)Nc2cccc([C@H]3CCCN3)c2)c1)OCc1ccccc1`: 27.6 µM.
Next, `NCc1cccc(NC(=O)[C@@H]2C[C@@H](O)CN2C(=O)C23CC4CC(CC(C4)C2)C3)c1`: greater than 99.5 µM; `NCc1cccc(NC(=O)c2cc3c(F)cc(F)c(F)c3[nH]2)c1`: 42.4 µM.
In turn, `Cn1nc(C2CC2)c2c(C(=O)Nc3cccc(CN)c3)cc(C3CC3)nc21` came in with a half-maximal inhibitory concentration (IC50) greater than 99.5 µM.
Next, `COCCCC(=O)N1CCC([C@H](NC(=O)OCc2ccccc2)C(=O)Nc2cccc(CN)c2)CC1`: greater than 99.5 µM; `NCc1ccc(NS(=O)(=O)c2ccc(Oc3ccccc3Cl)cc2)cc1Cl`: greater than 99.5 µM.
The same measure for `NCc1cccc(NC(=O)c2cc(C3CC3)nn2-c2ccccc2)c1`: greater than 99.5 µM.
The same measure for `CC(C)(C#N)c1cc(C(=O)Nc2cccc(CN)c2)cc(C(F)(F)F)c1`: greater than 99.5 µM.
As for `CCC1(NC(=O)Cn2ccnc(N3CC[C@@H](CO)C3)c2=O)CC1`, the half-maximal inhibitory concentration (IC50) was greater than 99.5 µM.
`CCCn1nc(C)c2c(C(=O)Nc3cccc(CN)c3)cc(C)nc21` displayed a half-inhibitory concentration (IC50) greater than 99.5 µM.
The same measure for `CCC1CN(C(=O)Cn2ccnc(N3CC[C@@H](CO)C3)c2=O)C1`: greater than 99.5 µM.
The same measure for `Cc1c(F)cc(C(=O)Nc2cccc(CN)c2)c(F)c1NC(=O)OCc1ccccc1`: 63.9 µM; for `NCc1cccc(NC(=O)c2ccc(=O)n(Cc3ccccc3Cl)c2)c1`: greater than 99.5 µM.
The same measure for `C#Cc1cc(CN)ccc1NS(=O)(=O)c1ccc(Oc2ccccc2Cl)cc1`: greater than 99.5 µM; for `Cc1ccc(S(=O)(=O)N2CCC([C@@H](NC(=O)OCc3ccccc3)C(=O)Nc3cccc(CN)c3)CC2)c(C)c1`: 71.9 µM; for `CCc1cc(C(=O)Nc2cccc(CN)c2)sc1-c1ccc(Cl)cc1`: 8.99 µM.
For `O=C(Cn1ccnc(N2CC[C@H](CO)C2)c1=O)NCc1cc[nH]n1`, the concentration for half-maximal inhibition (IC50) is greater than 99.5 µM.
The same measure for `Cc1ccc(C(=O)Nc2cccc(CN)c2)cc1NC(=O)Cc1ccncc1`: greater than 99.5 µM.
Next, `c1cncc(-c2cccc(NCc3c[nH]c4ccccc34)c2)c1`: greater than 99.5 µM; `NCc1cccc(NC(=O)c2nn(-c3ccccc3F)cc2Br)c1`: greater than 99.5 µM.
Next, `O=C(Nc1cc(Cl)cc(C(=O)Nc2cccc([C@H]3CNCCO3)c2)c1)OCc1ccccc1`: greater than 99.5 µM; `NCc1cccc(NC(=O)c2cc(C(F)(F)F)nn2CC2CCC2)c1`: greater than 99.5 µM; `NCCOc1ccnc(NS(=O)(=O)c2ccc(Oc3ccccc3Cl)cc2)c1`: greater than 99.5 µM.
On to `CCCC(=O)Nc1cc(Cl)cc(C(=O)Nc2cccc(CN)c2)c1`, for which the IC50 was found to be 4.37 µM.
Molecule `C[C@H]1CCCCN1C(=O)Cn1ccnc(N2CC[C@@H](CO)C2)c1=O` displayed an IC50 greater than 99.5 µM.
Next, `NCc1cccc(NC(=O)c2cc(C3CC3)n3nc(C(F)(F)F)cc3n2)c1`: greater than 99.5 µM; `O=C(O)c1cc(Cl)cc(NS(=O)(=O)c2ccc(-c3ccc(F)cc3)cc2)c1`: 75.7 µM; `Cc1cc(CN)cc(NS(=O)(=O)c2ccc(Oc3ccccc3Cl)cc2)c1`: greater than 99.5 µM.
For `NCc1cccc(NC(=O)c2c(C(F)F)nc3cnccn23)c1`, the IC50 was greater than 99.5 µM.
The same measure for `CNC(=O)CN1CCC([C@@H](NC(=O)OCc2ccccc2)C(=O)Nc2cccc(CN)c2)CC1`: greater than 99.5 µM.
Next, `NCc1cccc(NC(=O)c2ccnc3[nH]c(C4CCOCC4)nc23)c1`: greater than 99.5 µM; `Cc1ccc(NC(=O)c2cc(Cl)ccc2Cl)c(C(=O)Nc2cccc(CN)c2)c1`: 53.9 µM; `O=c1[nH]c2cccc(N3CCN(Cc4c[nH]c5ccccc45)CC3)c2o1`: greater than 99.5 µM.
The same measure for `Cc1cc(C(=O)Nc2cccc(CN)c2)cc(NC(=O)OCc2ccccc2)c1Cl`: 39 µM.
`N[C@@H]1CC[C@H](NC(=O)c2cc(Cl)cc(NC(=O)OCc3ccccc3)c2)C1` registered an IC50 of 45.3 µM.
Next, `CN(c1ccc(Oc2ccccc2Cl)cc1)S(=O)(=O)c1cc(F)c(Cl)cc1C(=O)O`: greater than 99.5 µM; `c1ccc2c(CNC3CCN(Cc4cscn4)CC3)c[nH]c2c1`: greater than 99.5 µM; `CCCCCn1cc(C(=O)Nc2cccc(CN)c2)c2ccccc21`: 70.4 µM.
Next, `Cc1ccc(-n2nc(C(=O)Nc3cccc(CN)c3)ccc2=O)cc1Cl`: greater than 99.5 µM.
`Cc1cc(C(=O)Nc2cccc(CN)c2)nc2c(C(C)C)cnn12` yielded a 50% inhibitory concentration (IC50) greater than 99.5 µM.
The same measure for `Cc1noc(C)c1Cc1ccc(C(=O)Nc2cccc(CN)c2)o1`: greater than 99.5 µM; for `CN1CCC(COc2ccc([C@@H](NC(=O)OCc3ccccc3)C(=O)Nc3cccc(CN)c3)cc2)CC1`: 82.3 µM; for `NC1(c2cccc(NS(=O)(=O)c3ccc(Oc4ccccc4Cl)cc3)c2)CCC1`: greater than 99.5 µM.
The same measure for `NCc1cccc(NC(=O)c2nn(-c3ccc(Cl)c(F)c3)c3c2CCC3)c1`: 36.9 µM.
Next, `CCC[C@H](Oc1ccc(Cl)cc1C)C(=O)Nc1cccc(CN)c1`: greater than 99.5 µM.
The molecule `CCCN(C)CC(=O)N1CCC([C@@H](NC(=O)OCc2ccccc2)C(=O)Nc2cccc(CN)c2)CC1` had an IC50 greater than 99.5 µM.
